Data as given in patent US20250281462A1, “THERAPEUTICALLY EFFECTIVE ORAL ADMINISTRATION OF A 2 ARYLBENZIMIDAZOLE” (Tranquis Therapeutics, Inc., priority 2021, published 2025).
Where “and” joins values, the source holds several entries; their conditions need not be identical. Equal values may be shown once. Read-outs that look alike come from different tables or passages of the source.

Experiment: Plasma concentrations of TQS-168 and TQS-621 after single oral dose 50 mg/kg in mice, three formulations
Assay type: in vivo
Settings: for concentration at 1 h / concentration at 2 h / concentration at 4 h / concentration at 8 h / concentration at 12 h / concentration at 0.25 h / concentration at 0.5 h: male, C57BL/6, mouse, plasma, po, read-out: Calculated Concentration in plasma; for concentration at 1 h / concentration at 2 h / concentration at 4 h / concentration at 8 h / concentration at 12 h / concentration at 0.25 h / concentration at 0.5 h / Calculated Concentration in plasma: mice
Procedure: In a second experiment, mice were administered 50 mg/kg TQS-168 by oral gavage. For Group 1, TQS-168 was prepared at a concentration of 5.0 mg/mL in a suspension with […] in PBS. For Group 2, TQS-168 was prepared at a concentration of 5.0 mg/mL as a solution in 10 polyethylene glycol (PEG) 400|30 Kleptose (Roquete)|60% water.
Plasma exposures for Group 1 mice (ng/mL) are presented in Table 2 and for Group 2 mice in Table 3.
C57BL/6 male mice were administered a single dose of TQS-168 at 50 mg/kg using one of three formulations: Group 1-5.0 mg/ml suspension in 0.5% methylcellulose in PBS; Group 2-5.0 mg/ml solution in PEG400 (Fluka) 10%|Kleptose (Roquette) 30%|sterile water 60%; Group 3-5.0 mg/ml suspension in Labrafil M 1944 CS (Gattefosse) 30%|Masine CC (Gattefosse) 5%|Miglyol 812N 10%|sterile water 55%.
Plasma concentrations of TQS-168 and TQS-621 were measured overtime.

[1] = mice plasma, TQS-168 50 mg/kg p.o., Group 1 (suspension, 0.5% methylcellulose in PBS), individual mouse, 50 mg/kg
[2] = mice plasma, TQS-168 50 mg/kg p.o., Group 2 (solution, PEG400/Kleptose/water), individual mouse, 50 mg/kg
[3] = mice plasma, TQS-168 50 mg/kg p.o., Group 3 (suspension, Labrafil/Masine/Miglyol/water), individual mouse, 50 mg/kg

Question: With CC(C)(C)c1ccc(-c2nc3ccccc3[nH]2)cc1 [TQS-168, 2-(4-tert-butylphenyl)-1H-benzimidazole] as the compound, how does the concentration at 1 h (50 mg/kg, 50 mg/kg p.o., Group 1 (suspension, methylcellulose in PBS), 1 hr, individual mouse) read?
Answer: 1280 ng/mL

Question: What about the concentration at 1 h (50 mg/kg, 50 mg/kg p.o., Group 1 (suspension, methylcellulose in PBS), 1 hr, mean) of the same compound?
Answer: 1100 ng/mL

Question: And the concentration at 2 h (50 mg/kg, 50 mg/kg p.o., Group 1 (suspension, methylcellulose in PBS), 2 hr, mean)?
Answer: 776 ng/mL

Question: And the concentration at 4 h (50 mg/kg, 50 mg/kg p.o., Group 1 (suspension, methylcellulose in PBS), 4 hr, individual mouse)?
Answer: 435 ng/mL

Question: What about the concentration at 4 h (50 mg/kg, 50 mg/kg p.o., Group 1 (suspension, methylcellulose in PBS), 4 hr, mean) of the same compound?
Answer: 435 ng/mL

Question: What about the concentration at 8 h (50 mg/kg, 50 mg/kg p.o., Group 1 (suspension, methylcellulose in PBS), 8 hr, mean) of the same compound?
Answer: 446 ng/mL

Question: And the concentration at 12 h (50 mg/kg, 50 mg/kg p.o., Group 1 (suspension, methylcellulose in PBS), 12 hr, mean)?
Answer: 187 ng/mL

Question: And the concentration at 0.25 h (50 mg/kg, 50 mg/kg p.o., Group 2 (solution, PEG 400/Kleptose/water), 0.25 hr, individual mouse)?
Answer: 656 ng/mL

Question: What about the concentration at 0.25 h (50 mg/kg, 50 mg/kg p.o., Group 2 (solution, PEG 400/Kleptose/water), 0.25 hr, mean) of the same compound?
Answer: 900 ng/mL

Question: What about the concentration at 0.5 h (50 mg/kg, 50 mg/kg p.o., Group 2 (solution, PEG 400/Kleptose/water), 0.5 hr, individual mouse) of the same compound?
Answer: 1950 ng/mL

Question: And the concentration at 0.5 h (50 mg/kg, 50 mg/kg p.o., Group 2 (solution, PEG 400/Kleptose/water), 0.5 hr, mean)?
Answer: 1960 ng/mL

Question: And the concentration at 1 h (50 mg/kg, 50 mg/kg p.o., Group 2 (solution, PEG 400/Kleptose/water), 1 hr, individual mouse)?
Answer: 1520 ng/mL

Question: And the concentration at 1 h (50 mg/kg, 50 mg/kg p.o., Group 2 (solution, PEG 400/Kleptose/water), 1 hr, mean)?
Answer: 1990 ng/mL

Question: What about the concentration at 2 h (50 mg/kg, 50 mg/kg p.o., Group 2 (solution, PEG 400/Kleptose/water), 2 hr, individual mouse) of the same compound?
Answer: 1810 ng/mL

Question: What about the concentration at 2 h (50 mg/kg, 50 mg/kg p.o., Group 2 (solution, PEG 400/Kleptose/water), 2 hr, mean) of the same compound?
Answer: 1760 ng/mL

Question: And the concentration at 4 h (50 mg/kg, 50 mg/kg p.o., Group 2 (solution, PEG 400/Kleptose/water), 4 hr, individual mouse)?
Answer: 1330 ng/mL

Question: What about the concentration at 4 h (50 mg/kg, 50 mg/kg p.o., Group 2 (solution, PEG 400/Kleptose/water), 4 hr, mean) of the same compound?
Answer: 1200 ng/mL

Question: What about the concentration at 8 h (50 mg/kg, 50 mg/kg p.o., Group 2 (solution, PEG 400/Kleptose/water), 8 hr, individual mouse) of the same compound?
Answer: 374 ng/mL

Question: What about the concentration at 8 h (50 mg/kg, 50 mg/kg p.o., Group 2 (solution, PEG 400/Kleptose/water), 8 hr, mean) of the same compound?
Answer: 427 ng/mL

Question: And the concentration at 12 h (50 mg/kg, 50 mg/kg p.o., Group 2 (solution, PEG 400/Kleptose/water), 12 hr, individual mouse)?
Answer: 185 ng/mL

Question: And the concentration at 12 h (50 mg/kg, 50 mg/kg p.o., Group 2 (solution, PEG 400/Kleptose/water), 12 hr, mean)?
Answer: 161 ng/mL

Question: What about the Cmax (mice plasma, 50 mg/kg p.o., Group 2 (solution), 50 mg/kg, read-out: Cmax) of the same compound?
Answer: 7.9 µM

Question: What about the AUCInf [1] of the same compound?
Answer: 5085 ng·h/mL and 14196 ng·h/mL and 5052 ng·h/mL

Question: What about the AUClast [1] of the same compound?
Answer: 8046 ng·h/mL and 4822 ng·h/mL

Question: What about the Cmax [1] of the same compound?
Answer: 1380 ng/mL and 704 ng/mL

Question: And the t1/2 [1]?
Answer: 1.74 h and 9.47 h and 1.70 h

Question: What about the AUCInf [2] of the same compound?
Answer: 11411 ng·h/mL and 11446 ng·h/mL

Question: And the AUClast [2]?
Answer: 11058 ng·h/mL and 10525 ng·h/mL

Question: What about the Cmax [2] of the same compound?
Answer: 2390 ng/mL and 2070 ng/mL

Question: And the t1/2 [2]?
Answer: 2.22 h and 3.41 h

Question: What about the AUCInf [3] of the same compound?
Answer: 4336 ng·h/mL and 3877 ng·h/mL

Question: And the AUClast [3]?
Answer: 3924 ng·h/mL and 3753 ng·h/mL

Question: What about the Cmax [3] of the same compound?
Answer: 752 ng/mL and 420 ng/mL

Question: And the Tmax [3]?
Answer: 8 h

Question: What about the t1/2 [3] of the same compound?
Answer: 2.23 h and 1.43 h

Question: And the Cmax (mice plasma, TQS-168 50 mg/kg p.o., Group 3 (suspension, Labrafil/Masine/Miglyol/water), mean, 50 mg/kg)?
Answer: 594 ng/mL

Question: What about the “Calculated Concentration in plasma” value (50 mg/kg p.o., Group 1 (suspension, methylcellulose in PBS), 0.25 hr, individual mouse, 50 mg/kg) of the same compound?
Answer: 887 ng/mL and 485 ng/mL

Question: What about the “Calculated Concentration in plasma” value (50 mg/kg p.o., Group 1 (suspension, methylcellulose in PBS), 0.5 hr, individual mouse, 50 mg/kg) of the same compound?
Answer: 848 ng/mL and 1380 ng/mL and 619 ng/mL

Question: And the “Calculated Concentration in plasma” value (50 mg/kg p.o., Group 1 (suspension, methylcellulose in PBS), 1 hr, individual mouse, 50 mg/kg)?
Answer: 1310 ng/mL and 704 ng/mL

Question: And the “Calculated Concentration in plasma” value (50 mg/kg p.o., Group 1 (suspension, methylcellulose in PBS), 2 hr, individual mouse, 50 mg/kg)?
Answer: 839 ng/mL and 1050 ng/mL and 440 ng/mL

Question: And the “Calculated Concentration in plasma” value (50 mg/kg p.o., Group 1 (suspension, methylcellulose in PBS), 4 hr, individual mouse, 50 mg/kg)?
Answer: 479 ng/mL and 391 ng/mL

Question: What about the “Calculated Concentration in plasma” value (50 mg/kg p.o., Group 1 (suspension, methylcellulose in PBS), 8 hr, individual mouse, 50 mg/kg) of the same compound?
Answer: 254 ng/mL and 603 ng/mL and 480 ng/mL

Question: And the “Calculated Concentration in plasma” value (50 mg/kg p.o., Group 1 (suspension, methylcellulose in PBS), 12 hr, individual mouse, 50 mg/kg)?
Answer: 18.0 ng/mL and 450 ng/mL and 93.9 ng/mL

Question: What about the “Calculated Concentration in plasma” value (50 mg/kg p.o., Group 1 (suspension, methylcellulose in PBS), 24 hr, individual mouse) of the same compound?
Answer: BLOQ

Question: And the “Calculated Concentration in plasma” value (50 mg/kg p.o., Group 2 (solution, PEG 400/Kleptose/water), 0.25 hr, individual mouse, 50 mg/kg)?
Answer: 874 ng/mL and 1170 ng/mL

Question: And the “Calculated Concentration in plasma” value (50 mg/kg p.o., Group 2 (solution, PEG 400/Kleptose/water), 0.5 hr, individual mouse, 50 mg/kg)?
Answer: 2070 ng/mL and 1860 ng/mL

Question: And the “Calculated Concentration in plasma” value (50 mg/kg p.o., Group 2 (solution, PEG 400/Kleptose/water), 1 hr, individual mouse, 50 mg/kg)?
Answer: 2390 ng/mL and 2070 ng/mL

Question: And the “Calculated Concentration in plasma” value (50 mg/kg p.o., Group 2 (solution, PEG 400/Kleptose/water), 2 hr, individual mouse, 50 mg/kg)?
Answer: 1830 ng/mL and 1630 ng/mL

Question: What about the “Calculated Concentration in plasma” value (50 mg/kg p.o., Group 2 (solution, PEG 400/Kleptose/water), 4 hr, individual mouse, 50 mg/kg) of the same compound?
Answer: 1330 ng/mL and 949 ng/mL

Question: And the “Calculated Concentration in plasma” value (50 mg/kg p.o., Group 2 (solution, PEG 400/Kleptose/water), 8 hr, individual mouse, 50 mg/kg)?
Answer: 329 ng/mL and 579 ng/mL

Question: And the “Calculated Concentration in plasma” value (50 mg/kg p.o., Group 2 (solution, PEG 400/Kleptose/water), 12 hr, individual mouse, 50 mg/kg)?
Answer: 110 ng/mL and 187 ng/mL

Question: What about the “Calculated Concentration in plasma” value (50 mg/kg p.o., Group 2 (solution, PEG 400/Kleptose/water), 24 hr, individual mouse) of the same compound?
Answer: BLOQ
